According to patent publication US4761404A, “Phospholipid analogs useful as PAF synthesis inhibitors” (Merck & Co., Inc., priority 1985, dated 1988):

Assays:
[1] = system: PAF biosynthesis; assay: PAF biosynthesis inhibition (rat spleen microsomes, [3H]acetyl CoA / lyso PAF); assay type: biochemical; details: 10 μM, incubation 5-8 minutes
Procedure: (1) Product PAF was estimated after reaction by liquid scintillation counting of the dried chloroform phase.
(2) [^3 H]Acetyl Co A was used in place of [^14 C],
(3) Incubation (i.e., reaction) times were generally within the range of 5-8 minutes.
(4) Concentrations used were in 1 ml of reaction mixture as follows:
Rat spleen microisomes: 50-150 μg

[2] = system: rabbit platlets; assay: aggregation of rabbit platelets (AC50); assay type: cell-based; details: Oryctolagus cuniculus, Platelet, 50% aggregation, only compounds structurally similar to PAF, read-out: AC50 (concentration of the test compound to obtain 50% aggregation of rabbit platlets)
Excerpt: The results obtained and the compounds tested are set forth in Table I below wherein "% I" represents percent inhibition and "AC50 " represents the concentration of the test compound to obtain 50% aggregation of rabbit platlets. The AC50 results were obtained only for those compounds which are structurally similar to PAF.

Molecule: 3-Hexadecylsulfonaminopropyl-1-phosphorylcholine [Example 51]
- % I (percent inhibition), PAF biosynthesis inhibition [1]: 34%

Molecule: 3-Octadecylaminocarbonylaminopropyl-1-phosphorylcholine [Example 52]
- % I (percent inhibition), PAF biosynthesis inhibition [1]: 74%

Molecule: 3-Tetradecycloxycarbonylaminopropyl-2-phosphorylcholine [Example 50]
- % I (percent inhibition), PAF biosynthesis inhibition [1]: 65%

Molecule: CCCCCCCCCCCCCCCCOCC(C)(O)COP(=O)([O-])OCC[N+](C)(C)C (stereo not drawn) [Example 12, 3-O-Hexadecyl-2-methylglycero-1-phosphorylcholine]
- AC50 [2]: > 100000 nM

Molecule: C=C(COCCCCCCCCCCCCCCCC)COP(=O)([O-])OCC[N+](C)(C)C [Example 13, 2-Hexadecyloxymethyl-2-propene-1-phosphorylcholine]
- % I (percent inhibition), PAF biosynthesis inhibition [1]: 38%
- AC50 [2]: 1300 nM

Molecule: CCCCCCCCCCCCCCCCOCC(COC(C)=O)COP(=O)([O-])OCC[N+](C)(C)C (stereo not drawn) [Example 14, 2-Acetoxymethyl-2-deoxy-3-O-hexadecylglycero-1-phosphocholine]
- % I (percent inhibition), PAF biosynthesis inhibition [1]: 36%
- AC50 [2]: 340 nM

Molecule: CCCCCCCCCCCCCCCCOCC(O)(COC(C)=O)COP(=O)([O-])OCC[N+](C)(C)C (stereo not drawn) [Example 15, 2-Acetoxymethyl-3-O-hexadecylglycero-1-phosphocholine]
- % I (percent inhibition), PAF biosynthesis inhibition [1]: 71%
- AC50 [2]: 70 nM

Molecule: CCCCCCCCCCCCCCCCOCC(CF)COP(=O)([O-])OCC[N+](C)(C)C (stereo not drawn) [Example 16, 2-Deoxy-2-fluoromethyl-3-0-hexadecylglycero-1-phosphocholine]
- % I (percent inhibition), PAF biosynthesis inhibition [1]: 30%
- AC50 [2]: 2200 nM

Molecule: CCCCCCCCCCCCCCCCOCC(CO)COP(=O)([O-])OCC[N+](C)(C)C (stereo not drawn) [Example 17, 2-Hydroxymethyl-2-deoxy-3-O-hexadecylglycero-1-phosphocholine]
- % I (percent inhibition), PAF biosynthesis inhibition [1]: 20%
- AC50 [2]: 24000 nM

Molecule: CCCCCCCCCCCCCCCCOCC(O)(CO)COP(=O)([O-])OCC[N+](C)(C)C (stereo not drawn) [Example 18, 2-Hydroxymethyl-3-O-hexadecylglycero-1-phosphocholine]
- % I (percent inhibition), PAF biosynthesis inhibition [1]: 82%
- AC50 [2]: 38000 nM

Molecule: Sodium 2-(2-N-hexadecanoylaminoethyl)-2'-(2 -methylcarbonylaminoethyl)phosphate [Example 46]
- % I (percent inhibition), PAF biosynthesis inhibition [1]: 90%

Molecule: Sodium 2-(2-N-hexadecanoylaminoethyl)-2'-(2-methylsulfinylethyl)phosphate [Example 53]
- % I (percent inhibition), PAF biosynthesis inhibition [1]: 71%
